Source: patent US7393952B2, “Solvent free amorphous rapamycin” (Cordis Corporation, priority 2004, dated 2008)

Assay: differential scanning calorimetry (DSC) of amorphous sirolimus
Format: physicochemical
Settings: DSC curve for this sample (FIG. 6); about 3 mg, heating rate 2° C./min, -40 to 200° C., nitrogen flow
Procedure: In another test, the amorphous sirolimus is analyzed utilizing differential scanning calorimetry (DSC). Essentially, the purpose of this test is to determine the glass transition temperature of the amorphous sirolimus. In this test, approximately 3 mg of amorphous sirolimus is transferred into a standard aluminum TA-Instrument sample pan and covered. The DSC curve is recorded on a TA-Instruments Q1000 MTDSC equipped with a RCS cooling unit. FIG. 6 illustrates a differential scanning calorimetry (DSC) curve of amorphous sirolimus. […] Based on a number of scans, the glass transition temperatures may be in the range from about 92 degrees C. to about 95 degrees C.

- glass transition temperature: about 93 degrees C.
Compound: CO[C@H]1C[C@@H]2CC[C@@H](C)[C@@](O)(O2)C(=O)C(=O)N2CCCC[C@H]2C(=O)O[C@H]([C@H](C)C[C@@H]2CC[C@@H](O)[C@H](OC)C2)CC(=O)[C@H](C)/C=C(\C)[C@@H](O)[C@@H](OC)C(=O)[C@H](C)C[C@H](C)/C=C/C=C/C=C/1C [amorphous sirolimus, sirolimus (rapamycin)]
